Measurements as given in US7414132B2, “Opioid receptor antagonists” (Eli Lilly and Company, priority 2003, dated 2008).

Key:
Type in all cases: biochemical
mu opioid receptor (MOR) = mu opioid receptor (MOR) (Homo sapiens, UniProt P35372); experiment: SPA-based GTP-γ-S binding assay, mu opioid receptor; settings: membranes, GTP-γ-[35S] SPA; antagonist assay with agonist DAMGO 1 micromolar; read-out: In Vitro Ki Mu
Description: (§1) An SPA-based GTP-γ-S assay format was developed based on previous opioid (Emmerson et al., J. Pharm Exp Ther 278, 1121, 1996; Horng et al., Society for Neuroscience Abstracts, 434.6, 2000) and muscarinic (DeLapp et al., JPET 289, 946, 1999) assay formats. Membranes were re-suspended in 20 mM HEPES, 100 mM NaCl, 5 mM MgCl2, 1 mM DTT, and 1 mM EDTA. Fifty (50) […] of GTP-γ-[35S], compound, membrane suspension (20 microgram/well), and wheat germ agglutinin coated SPA beads (1 mg/well) were added to clear bottom 96 well assay plates. GDP ([…]) was added to the membrane solution prior to addition to the assay plates. Plates were sealed and incubated for four hours at room temperature then placed in a refrigerator overnight to allow the beads to settle. Signal stability at 4° C. was determined to be >60 hours. Plates were warmed to room temperature and counted in a Wallac Microbeta scintillation counter.
(§2) For antagonist assays, specific agonists were added at the following concentrations: (MOR) DAMGO 1 micromolar, (DOR) DPDPE 30 nM, (KOR) U69593 300 nM. Kb's were determined by Cheng-Prusoff equation (see Cheng and Prusoff, Biochem. Pharmacol. 22, 3099, 1973).

[1] = target: kappa opioid receptor (KOR) (Homo sapiens, UniProt P41145); experiment: SPA-based GTP-γ-S binding assay, kappa opioid receptor; settings: membranes, GTP-γ-[35S] SPA; antagonist assay with agonist U69593 300 nM; read-out: In Vitro Ki Kappa
Description: as §1, §2

[2] = target: delta opioid receptor (DOR) (Homo sapiens, UniProt P41143); experiment: SPA-based GTP-γ-S binding assay, delta opioid receptor; settings: membranes, GTP-γ-[35S] SPA; antagonist assay with agonist DPDPE 30 nM; read-out: In Vitro Ki Delta
Description: as §1, §2

kappa opioid receptor (KOR), sequence (P41145 whole entry): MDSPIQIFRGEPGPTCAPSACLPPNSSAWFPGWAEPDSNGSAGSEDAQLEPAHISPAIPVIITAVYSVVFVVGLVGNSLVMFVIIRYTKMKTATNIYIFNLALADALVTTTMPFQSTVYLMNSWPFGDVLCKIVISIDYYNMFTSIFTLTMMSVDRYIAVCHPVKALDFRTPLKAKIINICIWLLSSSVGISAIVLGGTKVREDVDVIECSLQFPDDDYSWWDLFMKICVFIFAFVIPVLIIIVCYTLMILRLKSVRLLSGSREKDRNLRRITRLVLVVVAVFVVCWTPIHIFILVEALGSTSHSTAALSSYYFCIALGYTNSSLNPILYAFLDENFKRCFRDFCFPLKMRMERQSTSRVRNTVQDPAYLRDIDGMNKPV
mu opioid receptor (MOR), sequence (P35372 whole entry): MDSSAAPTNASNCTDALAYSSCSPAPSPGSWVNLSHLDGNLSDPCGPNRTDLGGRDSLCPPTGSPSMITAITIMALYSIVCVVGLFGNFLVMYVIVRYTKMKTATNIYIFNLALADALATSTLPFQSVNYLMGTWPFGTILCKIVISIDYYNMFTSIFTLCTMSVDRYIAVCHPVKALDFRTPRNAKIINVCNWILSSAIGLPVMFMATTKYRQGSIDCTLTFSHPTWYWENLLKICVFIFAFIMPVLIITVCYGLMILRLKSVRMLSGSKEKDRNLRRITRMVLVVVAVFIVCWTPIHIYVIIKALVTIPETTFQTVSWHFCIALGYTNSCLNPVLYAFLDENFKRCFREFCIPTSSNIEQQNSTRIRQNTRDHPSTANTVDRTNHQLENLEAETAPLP
delta opioid receptor (DOR), sequence (P41143 whole entry): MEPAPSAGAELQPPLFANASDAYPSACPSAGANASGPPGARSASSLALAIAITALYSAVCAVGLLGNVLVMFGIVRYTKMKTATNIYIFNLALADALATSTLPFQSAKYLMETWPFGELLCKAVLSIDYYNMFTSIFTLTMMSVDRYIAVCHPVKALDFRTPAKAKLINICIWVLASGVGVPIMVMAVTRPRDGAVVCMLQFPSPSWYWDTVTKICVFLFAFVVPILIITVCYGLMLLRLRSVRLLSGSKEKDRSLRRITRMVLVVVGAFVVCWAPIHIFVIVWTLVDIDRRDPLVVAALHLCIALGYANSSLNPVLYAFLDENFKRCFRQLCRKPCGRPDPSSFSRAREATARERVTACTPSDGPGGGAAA

Row | SMILES | Ki (mu opioid receptor (MOR)) [nM] | Ki [1] [nM] | Ki [2] [nM]
1 | CC(C)CCNCc1ccc(Oc2ccc(/C(N)=N/C#N)cn2)cc1 [Example 8, N-Cyano-6-{4-[(3-methyl-butylamino)-methyl]-phenoxy}-nicotinamidine] | 7.83 | 43.2 | 178
2 | c1csc(CCNCc2ccc(Oc3ccc(C4=NCCN4)cn3)cc2)c1 [Example 5, {4-[5-(4,5-Dihydro-1H-imidazol-2-yl)-pyridin-2-yloxy]-benzyl}-(2-thiophen-2yl-ethyl)amine] | 16.4 | 32.8 | 370
3 | CC(C)CCNCc1ccc(Oc2ccc(C3=NCCN3)cn2)cc1 [Example 4, {4-[5-(4,5-Dihydro-1H-imidazol-2-yl)-pyridin-2-yloxy]-benzyl}-(3-methyl-butyl)-amine] | 9.5 | 34.1 | 120

Continued by falling Ki (mu opioid receptor (MOR)), values first:

Row | Ki (mu opioid receptor (MOR)) [nM] | Ki [1] [nM] | Ki [2] [nM] | SMILES
4 | 46.1 | 134 | 485 | CC(C)CCNCc1ccc(Oc2ccc(C(=N)N)cn2)cc1 [Example 3, 6-{4-[(3-Methyl-butylamino)-methyl]-phenoxy}-nicotinamidine]
5 | 43.4 | 117 | 269 | CC(C)CCNCc1ccc(Oc2ccc(/C(N)=N/O)cn2)cc1 [Example 2, N-Hydroxy-6-{4-[(3-methyl-butylamino)-methyl]-phenoxy}-nicotinamidine]
6 | 5.81 | 47.5 | 81.1 | CC(C)CCNCc1ccc(Oc2ccc3c(N)noc3c2)cc1 [Example 11, 6-{4-[(3-Methyl-butylamino)-methyl]-phenoxy}-benzo[d]isoxazol-3-ylamine]
7 | 5.77 | 40.1 | 214 | CC(C)CCNCc1ccc(Oc2ccc(-c3ncc[nH]3)cn2)cc1 [Example 10, {4-[5-(1H-Imidazol-2-yl)-pyridin-2-yloxy]-benzyl}-(3-methyl-butyl)-amine]
